Experimental data reported in patent US20240173363A1, “MICROBIOME COMPOSITION OF HALOPHILIC BACILLUS VELEZENSIS KMU01 STRAIN FERMENTED CULTURE SUPERNATANT WITH ANTI-OBESITY EFFECT” (KOOKMINBIO, CORP., priority 2022, published 2024).

Test system: C57BL/6J mice
Experiment: Biochemical analysis of blood (plasma)
Format: in vivo
Conditions: HFD mice
Protocol: When brought in, the animal was inspected and weighed. […] Xenical was used as a positive control. […] Blood glucose, AST, ALT, and BUN were measured using a chemical analyzer (Fuji DRI-CHEM 3500i, Fuji Photo Film, Ltd., Tokyo, Japan), total cholesterol and high density lipoprotein (HDL)-cholesterol (hereinafter referred to as HDL-C) were measured using a LabAssay™ Cholesterol kit (Wako, Osaka, Japan), and a low-density lipoprotein (LDL)-cholesterol (hereinafter referred to as LDL-C) was calculated using the following Equation 2. In addition, TG was analyzed using TG assay kits (Abcam, Cambridge, MA), respectively. LDL-C=Total cholesterol−{(HDL-C)+(TG/5)} [EQUATION 2]

For `CCCCCCCCCCC[C@@H](C[C@@H]1OC(=O)[C@H]1CCCCCC)OC(=O)[C@H](CC(C)C)NC=O` [Xen], the “blood TG compared to the high-fat diet group” value (Xenical 50 mg/kg/day, 13 weeks, p<0.05) was “significantly reduced” and the LDL-C (plasma, 13 weeks oral, calculated by Equation 2, mean ± SD) was 31.55 ± 17.44 mg/dL.
